Laboratory results published in publication PMC3871618 (PLoS ONE, 2013).

Legend:
mouse P-glycoprotein = test system: mouse P-glycoprotein; parameters: method as in PMID 15338193; settings: cited from earlier work
ABCB1 transporter [1] = target: T1, ABCB1 transporter (Homo sapiens, UniProt P08183); experiment: HOE (Hoechst 33342) accumulation in MDCKII-ABCB1 cells; assay type: cell-based; settings: 8 µM HOE, end-point fluorescence at 30 min, 50% of each compound's own maximum inhibitory activity, read-out: IC50, inhibition of ABCB1-mediated efflux of HOE
T1 construct: expressed in transfected cells; host or cells: MDCKII (canine kidney) cells transduced with human ABCB1, from Prof; Piet Borst and Dr. Alfred Schinkel (The Netherlands Cancer Institute)
T1 sequence (P08183 whole entry): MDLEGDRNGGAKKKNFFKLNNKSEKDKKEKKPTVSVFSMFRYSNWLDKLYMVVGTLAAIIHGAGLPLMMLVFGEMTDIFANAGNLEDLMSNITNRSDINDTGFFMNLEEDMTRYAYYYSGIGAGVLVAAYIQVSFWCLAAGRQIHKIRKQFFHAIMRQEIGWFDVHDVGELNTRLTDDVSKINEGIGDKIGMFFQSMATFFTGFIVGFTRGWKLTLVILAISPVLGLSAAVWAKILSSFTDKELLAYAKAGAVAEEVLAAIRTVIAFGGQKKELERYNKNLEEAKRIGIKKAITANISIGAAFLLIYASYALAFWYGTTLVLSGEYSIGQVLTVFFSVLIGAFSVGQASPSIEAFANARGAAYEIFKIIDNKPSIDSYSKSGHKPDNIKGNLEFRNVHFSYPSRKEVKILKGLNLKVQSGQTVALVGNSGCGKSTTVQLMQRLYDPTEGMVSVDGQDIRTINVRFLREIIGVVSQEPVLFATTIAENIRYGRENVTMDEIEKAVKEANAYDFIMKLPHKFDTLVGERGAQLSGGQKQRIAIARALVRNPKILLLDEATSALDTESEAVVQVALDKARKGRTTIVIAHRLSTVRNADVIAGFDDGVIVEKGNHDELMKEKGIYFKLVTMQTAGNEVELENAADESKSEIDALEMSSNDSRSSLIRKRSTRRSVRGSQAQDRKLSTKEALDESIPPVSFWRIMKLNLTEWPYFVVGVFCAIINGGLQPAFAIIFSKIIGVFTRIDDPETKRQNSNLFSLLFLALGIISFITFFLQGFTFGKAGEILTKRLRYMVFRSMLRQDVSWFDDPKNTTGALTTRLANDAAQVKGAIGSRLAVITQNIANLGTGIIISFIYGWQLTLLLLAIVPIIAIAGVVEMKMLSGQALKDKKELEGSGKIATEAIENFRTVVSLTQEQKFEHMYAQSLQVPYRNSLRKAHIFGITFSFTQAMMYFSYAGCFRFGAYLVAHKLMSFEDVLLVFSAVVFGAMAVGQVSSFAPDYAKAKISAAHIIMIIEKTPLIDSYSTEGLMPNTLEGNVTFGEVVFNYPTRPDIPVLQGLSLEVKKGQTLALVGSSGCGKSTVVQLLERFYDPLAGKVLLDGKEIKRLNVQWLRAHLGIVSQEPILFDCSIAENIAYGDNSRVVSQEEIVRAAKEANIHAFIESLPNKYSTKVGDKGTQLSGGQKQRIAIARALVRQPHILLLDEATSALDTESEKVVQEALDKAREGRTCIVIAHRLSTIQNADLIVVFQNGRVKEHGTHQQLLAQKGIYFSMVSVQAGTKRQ
Description: (§1) To investigate the inhibitory activity of CDKi on ABCB1, the intracellular accumulation of HOE, a fluorescent ABCB1 substrate, was examined in both MDCKII-ABCB1 and MDCKII parent cell lines in the presence and absence of the tested compounds. The reduction in fluorescence intensity in ABCB1-transduced cells indicates the efflux activity of the ABCB1 transporter, its inhibition increases HOE accumulation and thus the intracellular fluorescence.
(§2) The assay was conducted as previously described and optimized for application in ABCB1-expressing cells. Briefly, MDCKII-ABCB1 and MDCKII parent cells were seeded at 5×10^4 cells per well on a 96-well culture plate and used for accumulation experiments after 24 h cultivation. The medium was removed and cells were washed twice with prewarmed phosphate buffered saline (PBS) at pH 7.4.

ABCB1 [2] = target: T2, ABCB1 (Homo sapiens, UniProt P08183); experiment: ABCB1-ATPase activation assay (baseline), Sf9 membranes; assay type: biochemical; parameters: purchased Solvo Biotechnology (Szeged, Hungary); host or cells: Sf9 insect cell membranes; settings: from ATPase activity in Sf9 membranes overexpressing human ABCB1
T2 sequence (P08183 whole entry): as above
Description: (§3) The drug efflux function of ABCB1 is linked to hydrolysis of ATP by ATPase, which is stimulated in the presence of ABCB1 substrates. In the activation assay, transported substrates can stimulate baseline vanadate-sensitive ATPase activity, whereas in the inhibition assay, which is carried out in the presence of a known activator of the transporter, inhibitors may reduce the maximal vanadate-sensitive ATPase activity. ATPase activity was measured by assessing the amount of phosphate liberated from ATP by the ABCB1 transporter using the […] ATPase kit for ABCB1 according to the manufacturer’s instructions. For this purpose, Sf9 cell membranes (4 µg protein per well) were mixed with each of the test compounds (singly) in solutions with concentrations ranging from 140 nM to 300 µM, then incubated at 37°C for 10 min in the presence or absence of 1.2 mM sodium orthovanadate. The reaction was started by adding 10 mM ATP solution (magnesium salt) to the reaction mixture, stopped 10 min later, and the absorbance at 590 nm was measured after a further 30 min incubation (GeniosPlus apparatus; Tecan, Männedorf, Switzerland). The ATPase activity in each sample was determined as the difference in liberated amounts of phosphate measured in the presence and absence of 1.2 mM sodium orthovanadate. Phosphate standards were prepared in each plate and verapamil served as a positive control for ABCB1 stimulation. The results are expressed as vanadate-sensitive ATPase activities.

ABCB1 [3] = target: T2, ABCB1; experiment: HOE (Hoechst 33342) accumulation in MDCKII-ABCB1 cells; assay type: cell-based; parameters: expressed in transfected cells; host or cells: MDCKII (canine kidney) cells transduced with human ABCB1, from Prof; Piet Borst and Dr. Alfred Schinkel (The Netherlands Cancer Institute); settings: human, probe Hoechst 33342 (HOE), 8 µM, CDKi applied at their respective IC50 concentrations, % as strongly as LY, read-out: Inhibition of HOE efflux relative to LY
Description: as §1, §2

ABCB1 transporter [4] = target: T1, ABCB1 transporter; experiment: DNR accumulation in MDCKII-ABCB1 cells (flow cytometry), normalized to parental MDCKII; assay type: cell-based; settings: 2 µM DNR
Description: Briefly, MDCKII-ABCB1 and MDCKII parent cells were seeded at 1.5×10^5 cells per well on a 12-well plate 24 h before the experiment. The medium was removed and the cells were washed with prewarmed PBS. The cells were then preincubated in Opti-MEM, with or without CDKi or LY at 37°C in 5% CO2 for 30 min. […] Accumulation was stopped by cooling the samples on ice, removing the medium and washing twice with ice-cold PBS. The cells were then detached from the plates with 10× trypsin-EDTA, resuspended in PBS with 2% FBS and transferred to Eppendorf tubes, which were placed on ice until analysis. […] The median fluorescence (MF) intensity of 10,000 measured cells was used to compare the fluorescence resulting from each of the treatments. […] The MF intensity of untreated cells was subtracted from fluorescence values obtained for all the measured samples.
To quantify the inhibitory effect of each tested compound on the ABCB1 transporter in the MDCKII-ABCB1 cell line, the ratio between the MF intensity with or without inhibitor was calculated and normalized to the effect in the parental MDCKII cell line according to the following equation [30]: [drawing 1]

ABCB1 [5] = target: T2, ABCB1; experiment: ABCB1-ATPase inhibition assay (verapamil-stimulated), Sf9 membranes; assay type: biochemical; parameters: purchased Solvo Biotechnology (Szeged, Hungary); host or cells: Sf9 insect cell membranes; settings: 140 nM to 300 µM
Description: as §3

ABCG2 = test system: ABCG2; parameters: method as in PMID 22173067, PMID 24116053; settings: in vitro and in situ; cited from earlier work
MDCKII-ABCB1 cells = experiment: XTT cytotoxicity, CDKi + DNR combination (Chou-Talalay); assay type: cell-based; settings: MDCKII-ABCB1, 72 h
Description: (§4) 1×10^4 MDCKII-ABCB1, 1×10^4 MDCKII parent, 2×10^4 HCT-8, or 2×10^4 HepG2 cells were grown in 96-well culture plates and incubated for 24 h. Individual CDKi diluted with growth medium were added to the exponentially growing cells and the resulting mixtures were incubated for 72 h at 37°C, 5% CO2. Cytotoxicity was then assessed using the XTT assay as follows: cells were incubated with 0.167 mg/mL XTT and 4 µM PMS in Opti-MEM for 2 h. The absorbance of the soluble formazan released was measured at 470 nm on a microplate reader (Tecan, Männedorf, Switzerland).
(§5) The combination index (CI) method of Chou-Talalay, based on the median-effect equation, was used to calculate combined drug effects. This approach offers quantitative definitions for additive, synergistic and antagonistic effects (CI values of 0.9–1.1, <0.9, and >1.1, respectively). Combination experiments were performed in a constant-ratio experimental design as recommended for the most efficient data analysis, and the generated data were used to quantify dose-reduction indices (DRI) for pairs of the tested drugs. DRI represents the fold-change of a focal effect when individual agents are used simultaneously relative to their separate effects, and their activity is synergistic if DRI > 1. […] The data acquired from these drug combination experiments were analyzed using CompuSyn ver. 3.0.1 software (ComboSyn Inc., Paramus, NJ, USA).

MDCKII parent cells = experiment: as above; assay type: cell-based; settings: 72 h
Description: as §4, §5

HepG2 cells = experiment: as above; assay type: cell-based, human; settings: HepG2, 72 h
Description: as §4, §5

HCT-8 cells = experiment: as above; settings: HCT-8, 72 h
Description: as §4, §5

[6] = CDKi combined with DNR at constant ratio

For `CC(C)(C)c1cnc(CSc2cnc(NC(=O)C3CCNCC3)s2)o1` [SNS-032], the “Substrate of mouse P-glycoprotein (brain levels Abcb1 knockout vs wild type mice)” value (mouse P-glycoprotein) is listed as “substrate of mouse P-glycoprotein”, the IC50 (ABCB1 transporter [1]) is listed as 14.6 µM and the ABCB1 substrate classification (ABCB1 [2]) is listed as “non-substrates of ABCB1”. For the same molecule, the inhibition at 30 min (ABCB1 [3]) was 23%, the “Inhibition of DNR efflux/accumulation across applied range” value (ABCB1 transporter [4]; 1 - 20 µM CDKi) was “did not inhibit DNR accumulation at any tested concentration” and the “Effect on verapamil-stimulated vanadate-sensitive ATPase activity of ABCB1” value (ABCB1 [5]) was “only slightly reduced it at the highest tested concentration”.

In the case of `CC(C)[C@H](CO)Nc1nc(Nc2cccc(Cl)c2)c2ncn(C(C)C)c2n1` [purvalanol A], the ABCG2 inhibition (ABCG2) is listed as “can inhibit ABCG2 in vitro and in situ”, the “Combination index (CI) category, combination with DNR” value (MDCKII-ABCB1 cells; constant ratio) is listed as “synergistic category of drug combination effects across almost the whole fraction of cells affected (Fa) range” and the “DRI at Fa 0.5, drug II (CDKi)” value (MDCKII-ABCB1 cells; [6]) is listed as 4.03±0.08. The “DRI at Fa 0.75, drug II (CDKi)” value (MDCKII-ABCB1 cells; [6]) was 3.73±0.06, the “DRI at Fa 0.9, drug II (CDKi)” value (MDCKII-ABCB1 cells; [6]) was 3.45±0.04 and the “DRI at Fa 0.5, drug II (CDKi)” value (MDCKII parent cells; [6]) was 2.41±0.03. For the same molecule, the “DRI at Fa 0.75, drug II (CDKi)” value (MDCKII parent cells; [6]) was 2.40±0.04, the “DRI at Fa 0.9, drug II (CDKi)” value (MDCKII parent cells; [6]) was 2.39±0.06 and the “Fa above which combination with DNR is synergistic” value (MDCKII parent cells; constant ratio) was “exceeded 0.4”. The IC50 (ABCB1 transporter [1]) was 12.1 µM, the ABCB1 substrate classification (ABCB1 [2]) was “non-substrates of ABCB1” and the “Fa values for synergism of combination with DNR” value (HepG2 cells; constant ratio) was 0.9. For the same molecule, the “DRI at Fa 0.9, drug II (CDKi)” value (HepG2 cells; [6]) was 1.68±0.03, the inhibition at 30 min (ABCB1 [3]) was 86% and the “ABCB1 inhibition (DNR efflux)” value (ABCB1 transporter [4]; 20 µM CDKi) was “significant (P<0.05) ABCB1 inhibition”. For the same molecule, the “Fa at which combination with DNR shows synergistic cytotoxic effects” value (HCT-8 cells; constant ratio) was over 0.75, the “DRI at Fa 0.75, drug II (CDKi)” value (HCT-8 cells; [6]) was 1.77±0.01 and the “DRI at Fa 0.9, drug II (CDKi)” value (HCT-8 cells; [6]) was 1.68±0.05. For the same molecule, the “Effect on verapamil-stimulated vanadate-sensitive ATPase activity of ABCB1” value (ABCB1 [5]) was “considerably and dose-dependently reduced”.
